This is an account of results in ChEMBL document CHEMBL1139626, “Total asymmetric synthesis of (-)-conduramine B-1 and of its enantiomer. N-Benzyl derivatives of conduramine B-1 are beta-glucosidase inhibitors” (Bioorg Med Chem Lett, 2005).

The source made the active and inactive calls. The calls are words filed in the database; no cut-off is given here.

Test [1] can be described thus: Inhibition against Alpha Glucosidase from yeast at 1 mM; (ni=no inhibition).
Test [2] is described as follows: Inhibitory concentration against Beta Glucosidase from Almonds. Details: species or system Prunus dulcis.
Test [3] deals with T1, Alpha-glucosidase (Oryza sativa Japonica Group) (UniProt Q9LGC6).
T1 sequence (whole entry): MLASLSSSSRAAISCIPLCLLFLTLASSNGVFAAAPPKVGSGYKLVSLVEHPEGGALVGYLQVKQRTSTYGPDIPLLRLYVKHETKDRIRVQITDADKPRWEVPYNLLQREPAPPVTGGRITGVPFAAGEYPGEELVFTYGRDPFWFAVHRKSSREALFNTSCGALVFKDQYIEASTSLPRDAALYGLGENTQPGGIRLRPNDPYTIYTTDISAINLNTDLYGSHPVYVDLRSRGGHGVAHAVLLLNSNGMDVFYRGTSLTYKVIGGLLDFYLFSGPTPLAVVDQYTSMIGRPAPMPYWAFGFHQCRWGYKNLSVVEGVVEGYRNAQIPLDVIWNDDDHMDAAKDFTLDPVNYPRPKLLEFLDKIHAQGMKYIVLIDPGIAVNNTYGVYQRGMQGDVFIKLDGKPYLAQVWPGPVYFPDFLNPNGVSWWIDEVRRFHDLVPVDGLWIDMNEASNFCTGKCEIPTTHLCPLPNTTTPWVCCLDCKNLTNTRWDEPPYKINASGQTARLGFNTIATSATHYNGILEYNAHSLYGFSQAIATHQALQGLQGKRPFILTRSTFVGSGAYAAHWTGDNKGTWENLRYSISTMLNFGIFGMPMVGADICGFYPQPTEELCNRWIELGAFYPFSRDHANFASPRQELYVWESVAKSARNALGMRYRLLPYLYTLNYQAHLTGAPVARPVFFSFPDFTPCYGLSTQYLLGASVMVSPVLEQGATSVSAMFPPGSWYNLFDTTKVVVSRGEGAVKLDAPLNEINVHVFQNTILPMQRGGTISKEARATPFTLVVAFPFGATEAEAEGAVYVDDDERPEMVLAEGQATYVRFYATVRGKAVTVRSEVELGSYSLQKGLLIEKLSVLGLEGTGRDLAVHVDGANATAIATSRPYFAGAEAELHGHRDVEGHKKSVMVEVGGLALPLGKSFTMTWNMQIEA
Description: Inhibition against Alpha Glucosidase from rice at 1 mM; (ni=no inhibition).

For test [4], the target named is Glucoamylase (Aspergillus niger) (UniProt P69328). Description: Inhibition against Amyloglucosidase from Aspergillus niger at 1 mM; (ni=no inhibition).
Glucoamylase (Aspergillus niger), sequence (P69328 whole entry): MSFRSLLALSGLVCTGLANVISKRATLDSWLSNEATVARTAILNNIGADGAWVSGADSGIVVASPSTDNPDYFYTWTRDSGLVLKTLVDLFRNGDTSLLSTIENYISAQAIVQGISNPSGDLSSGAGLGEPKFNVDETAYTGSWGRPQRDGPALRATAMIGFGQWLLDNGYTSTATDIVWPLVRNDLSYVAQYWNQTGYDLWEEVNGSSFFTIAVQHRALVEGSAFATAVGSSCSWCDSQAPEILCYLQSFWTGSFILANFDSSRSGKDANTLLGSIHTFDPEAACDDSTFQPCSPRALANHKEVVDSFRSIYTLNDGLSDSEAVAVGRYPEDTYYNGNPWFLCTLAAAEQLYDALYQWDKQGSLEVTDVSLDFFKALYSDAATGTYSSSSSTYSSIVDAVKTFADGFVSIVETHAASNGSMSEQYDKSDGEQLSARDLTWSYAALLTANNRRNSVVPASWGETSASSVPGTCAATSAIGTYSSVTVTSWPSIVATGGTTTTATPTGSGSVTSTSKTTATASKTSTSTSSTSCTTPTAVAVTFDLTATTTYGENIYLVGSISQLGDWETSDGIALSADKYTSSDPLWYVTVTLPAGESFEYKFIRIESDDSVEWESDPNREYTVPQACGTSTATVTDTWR
Test [5] addresses T2, Exo-1,4-beta-xylosidase xlnD (Aspergillus niger) (UniProt O00089).
T2 sequence (whole entry): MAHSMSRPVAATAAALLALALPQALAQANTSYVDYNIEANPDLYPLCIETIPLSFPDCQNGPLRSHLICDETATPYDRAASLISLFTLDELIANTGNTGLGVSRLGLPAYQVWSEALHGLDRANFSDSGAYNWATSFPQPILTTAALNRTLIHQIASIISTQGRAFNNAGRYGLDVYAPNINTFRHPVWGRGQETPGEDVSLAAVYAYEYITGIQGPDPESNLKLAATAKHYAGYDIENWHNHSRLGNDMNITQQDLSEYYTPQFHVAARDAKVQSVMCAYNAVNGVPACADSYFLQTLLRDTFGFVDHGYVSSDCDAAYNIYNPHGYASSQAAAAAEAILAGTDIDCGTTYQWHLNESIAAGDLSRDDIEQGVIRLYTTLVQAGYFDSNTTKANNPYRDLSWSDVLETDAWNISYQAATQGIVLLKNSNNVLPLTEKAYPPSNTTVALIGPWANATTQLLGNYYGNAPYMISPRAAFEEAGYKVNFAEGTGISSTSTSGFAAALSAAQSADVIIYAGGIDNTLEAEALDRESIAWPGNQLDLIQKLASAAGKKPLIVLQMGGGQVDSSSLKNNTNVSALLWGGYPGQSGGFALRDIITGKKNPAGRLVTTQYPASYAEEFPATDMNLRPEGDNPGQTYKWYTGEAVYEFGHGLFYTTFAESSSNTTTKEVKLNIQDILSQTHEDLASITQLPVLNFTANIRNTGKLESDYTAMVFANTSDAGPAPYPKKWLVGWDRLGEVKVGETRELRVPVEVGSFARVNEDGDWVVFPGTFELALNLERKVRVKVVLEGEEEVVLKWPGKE
Description: Inhibition against Beta-xylosidase from Aspergillus niger at 1 mM; (ni=no inhibition).

Test [6] addresses T3, Glucoamylase 1 (Rhizopus oryzae) (UniProt P07683).
T3 sequence (whole entry): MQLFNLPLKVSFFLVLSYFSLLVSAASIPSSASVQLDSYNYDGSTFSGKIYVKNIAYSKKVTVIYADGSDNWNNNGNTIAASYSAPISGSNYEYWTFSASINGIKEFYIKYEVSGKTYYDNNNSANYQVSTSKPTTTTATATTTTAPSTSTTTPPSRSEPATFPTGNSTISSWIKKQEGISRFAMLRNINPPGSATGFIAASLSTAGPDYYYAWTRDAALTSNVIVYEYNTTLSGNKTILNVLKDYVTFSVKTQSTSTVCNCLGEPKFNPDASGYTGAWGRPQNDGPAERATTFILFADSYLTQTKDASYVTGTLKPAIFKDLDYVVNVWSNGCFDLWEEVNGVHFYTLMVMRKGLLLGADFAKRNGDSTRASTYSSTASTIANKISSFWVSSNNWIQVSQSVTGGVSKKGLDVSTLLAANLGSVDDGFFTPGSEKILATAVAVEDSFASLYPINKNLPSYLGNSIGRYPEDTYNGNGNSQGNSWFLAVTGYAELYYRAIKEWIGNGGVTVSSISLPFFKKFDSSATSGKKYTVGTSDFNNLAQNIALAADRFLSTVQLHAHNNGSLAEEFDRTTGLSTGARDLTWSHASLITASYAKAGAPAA
Description: Percent inhibition against Amyloglucosidase from Rhizopus mold at 1 mM.

Test [7] has as its system Prunus dulcis. In words: Inhibition against Beta Glucosidase from Almonds at 1 mM.
Test [8] has as its target Beta-glucosidase A (Caldicellulosiruptor saccharolyticus) (UniProt P10482). Description: Percent inhibition against Beta Glucosidase from Caldocellum saccharolyticum at 1 mM.
The test system of test [9] is Prunus dulcis. Description: Inhibition against Beta Glucosidase from Almonds at 1 mM; (ni=no inhibition).
Test [10] deals with T3, Glucoamylase 1 (Rhizopus oryzae). Description: Inhibition against Amyloglucosidase from Rhizopus mold at 1 mM; (ni=no inhibition).
Test [11] addresses Glucoamylase (Aspergillus niger) (UniProt P69328). Description: Percent inhibition against Amyloglucosidase from Aspergillus niger at 1 mM concentration.
Test [12] has as its system Prunus dulcis. Description: Percent inhibition against Beta Glucosidase from Almonds at 1 mM.
Test [13] has as its target Beta-glucosidase A (Caldicellulosiruptor saccharolyticus) (UniProt P10482). Description: Inhibition against Beta Glucosidase from Caldocellum saccharolyticum at 1 mM; (ni=no inhibition).
Test [14] in a line: Inhibitory activity against Beta Glucosidase from Almonds. Details: species or system Prunus dulcis.
Test [15] addresses T2, Exo-1,4-beta-xylosidase xlnD (Aspergillus niger). Description: Inhibition against Beta-xylosidase from Aspergillus niger at 1 mM concentration.
Test [16] shares this target. In words: Percent inhibition against Beta-xylosidase from Aspergillus niger at 1 mM; (ni=no inhibition).
Test [17] has the same target. In words: Percent inhibition against Beta-xylosidase from Aspergillus niger at 1 mM.
In test [18] the target is Beta-glucosidase A (Caldicellulosiruptor saccharolyticus, UniProt P10482). Description: Inhibitory concentration against Beta Glucosidase from Caldocellum saccharolyticum.
Beta-glucosidase A, sequence (P10482 whole entry): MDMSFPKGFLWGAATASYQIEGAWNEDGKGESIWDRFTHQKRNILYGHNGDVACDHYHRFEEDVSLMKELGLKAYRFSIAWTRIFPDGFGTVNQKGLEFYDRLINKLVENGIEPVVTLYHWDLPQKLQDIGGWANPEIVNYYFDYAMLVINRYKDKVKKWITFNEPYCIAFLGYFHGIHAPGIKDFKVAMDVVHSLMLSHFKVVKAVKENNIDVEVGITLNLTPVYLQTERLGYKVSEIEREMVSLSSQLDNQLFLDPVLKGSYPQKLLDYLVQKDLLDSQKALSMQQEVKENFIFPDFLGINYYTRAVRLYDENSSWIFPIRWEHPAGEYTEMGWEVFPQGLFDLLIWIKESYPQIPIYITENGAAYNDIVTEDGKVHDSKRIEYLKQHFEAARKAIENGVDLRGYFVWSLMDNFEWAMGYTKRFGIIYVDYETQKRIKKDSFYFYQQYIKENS

Beta-glucosidase A (Caldicellulosiruptor saccharolyticus), sequence (P10482 whole entry): as above

On to `CCCNC1C=CC(O)C(O)C1O` (racemic), for which the inhibition result in test [1], in [3], in test [4] and in test [5] was “inactive” throughout. Also, half-maximal inhibition in [2] (IC50) required 66 µM. The inhibition – broadly, how much of the control response was suppressed – in test [6] came to 30%; in test [7] it was 80%.

As to `CCCCCCCCN(CCCCCCCC)C1C=CC(O)C(O)C1O` (racemic), the inhibition result in test [1], in test [9], in test [3], in test [4], in test [5] and in test [10] was “inactive” in each case. Further, in [8], the inhibition amounted to 83%.

Turning to `COc1ccc(CNC2C=CC(O)C(O)C2O)cc1` (stereo in doubt), the inhibition is 63% in test [11], 51% in test [12] and 72% in test [6]. Besides, the inhibition result in test [1], in [3], in [5] and in test [13] was “inactive” throughout.

Consider `OC1C=CC(NCc2ccc(Cl)cc2)C(O)C1O` (stereo in doubt), for which the inhibition in [11] was determined as 45%; in test [12] it was 51%; in test [6], 72%. Further, the inhibition result in test [1], in [3], in [5] and in [13] was “inactive” each time.

As for `OC1C=CC(NCc2ccccc2)C(O)C1O` (stereo in doubt), the inhibition turned out to be 63% in test [11], 51% in test [12] and 72% in [6]. Further, the inhibition result in [1], in test [3], in [5] and in [13] was “inactive” in each case.

As for `Oc1ccc(CNC2C=CC(O)C(O)C2O)cc1` (stereo in doubt), the figures for the inhibition in test [11], in [12] and in test [6] were 94%, 26% and 85%, respectively. In addition, the inhibition entry in test [1], in test [3], in test [5] and in test [13] was “inactive” throughout.

`Oc1ccccc1CNC1C=CC(O)C(O)C1O` (stereo in doubt): the results for the inhibition in test [11] and in test [6] were 42% and 41%, respectively. In addition, the inhibition entry in [1], in test [9], in [3], in test [5] and in [13] was “inactive” in each case.

In the case of `OC1C=CC(NCc2ccccc2)C(O)C1O` (stereo in doubt; 4e) [listing 1 of 2 here], the IC50 (usually the concentration needed to halve the response being measured) in test [2] stood at 32 µM. In addition, the Ki (in general, a measure of affinity in units of concentration, obtained from inhibition or displacement) in test [14] came to 10 µM.

Turning to `OC1C=CC(NCc2ccccc2)C(O)C1O` (stereo in doubt; 4e) [listing 2 of 2 here], the inhibition result in test [1], in [3], in test [4] and in test [10] was “inactive” each time. The inhibition came to 43% in [8], 96% in test [12] and 74% in test [15].

For the compound `Oc1ccc(CNC2C=CC(O)C(O)C2O)cc1` (stereo in doubt; 4f), the inhibition in test [11] was found to be 31%; in [8], 56%; in [12], 93%; in [6], 57%; in test [16], 67%. Further, the inhibition entry in test [1] and in test [3] was “inactive” throughout.

`COc1ccc(CNC2C=CC(O)C(O)C2O)cc1` (stereo in doubt; 4g) [listing 1 of 2 here] yielded an IC50 in test [2] of 52 µM. The compound further gave a Ki in test [14] of 25 µM.

In the case of `COc1ccc(CNC2C=CC(O)C(O)C2O)cc1` (stereo in doubt; 4g) [listing 2 of 2 here], the inhibition in test [17] is 74%; in test [8], 68%; in test [12] it was 95%. In addition, the inhibition entry in test [1], in test [3], in test [4] and in [10] was “inactive” in each case.

On to `OC1C=CC(NCc2ccc(Cl)cc2)C(O)C1O` (stereo in doubt; 4h), for which the IC50 in test [2] was determined as 35 µM; in [18], 185 µM.

Turning to `OC1C=CC(NCc2ccc(-c3ccccc3)cc2)C(O)C1O` (stereo in doubt; 4i), the inhibition entry in test [1], in test [3], in test [4], in [5] and in test [10] was “inactive” each time. The figures for the inhibition in test [8] and in test [12] were 94% and 97%, respectively.

As to `OC1C=CC(NCc2ccc(Oc3ccccc3)cc2)C(O)C1O` (stereo in doubt; 4j) [listing 1 of 2 here], the IC50 is 43 µM in test [2] and 52 µM in test [18]. Besides, the Ki in test [14] stood at 13 µM.

On to `OC1C=CC(NCc2ccc(Oc3ccccc3)cc2)C(O)C1O` (stereo in doubt; 4j) [listing 2 of 2 here], for which the inhibition result in [1], in [3], in test [4], in test [5] and in test [10] was “inactive” each time. For the same compound, the inhibition in test [8] stood at 71%; in test [12], 97%.

`COc1cc(O)c(CNC2C=CC(O)C(O)C2O)c(Br)c1` (stereo in doubt; 4l): the inhibition result in test [1], in test [9], in [3], in [4], in [5] and in test [10] was “inactive” each time. Further, the inhibition in test [8] amounted to 43%.
